Tests used:
[1] = molecular target: T1, lipase activity of LIPA (Homo sapiens, UniProt P38571); assay: Lipase activity assay; type: biochemical; settings: SUM-159 cells
T1 construct: lipase activity of parental SUM-159 (WT) and SUM-159 cells with LIPA KO; endogenous in cells; host or cells: SUM-159 (parental)
Text: FIGS. 39A-N: (FIGS. 39A-E) Predicted binding mode of ERX-41 (colored in green) on the human lysosomal acid lipase (LAL, PDB code: 6V7N, LXXLL (SEQ ID NO: 1) domain colored in orange). (FIG. 39F) PDB structure of LAL protein showing relative positions of the catalytic domain (with H274Y MT) and the LXXLL (SEQ ID NO: 1) domain (L242P MT). (FIG. 39G) Evaluation of the effect of ERX-41 and lalistat (known lipase inhibitor) on lipase activity of parental SUM-159 (WT) and SUM-159 cells with LIPA KO. (FIG. 39H) Evaluation of basal lipase activity in parental SUM-159 (WT), SUM-159 cells with LIPA KO (KO), SUM-159 cells with LIPA KO and with reconstitution of either WT LIPA (KO+WT), H274Y MT-LIPA (KO+H274Y), DLXXLL (SEQ ID NO: 2) MT-LIPA (KO+DLXXLL (SEQ ID NO: 2)) or L242P MT-LIPA (KO+L242P). Protein expression of LAL and control vinculin in these cells are shown below (FIG. 391) Cellular lysates from described SUM-159 cells were incubated with biotinylated ERX-11 or biotinylated ERX-41 and then subject to a streptavidin column. Elutants were then evaluated for LIPA pulldown by western blotting. (FIG. 39J) Dose response curve to increasing concentrations of ERX-41 in described SUM-159 cells. (FIGS. 39K-M) Effect of vehicle or 1 μM ERX-41 on induction of UPR genes at the protein level (FIG. 39K) or RNA level (FIGS. 39L-M). […]

[2] = system: MCF-7 MT-ERα Y537S cells; type: cell-based; settings: 200 nM
[3] = system: MT-ERα; assay: RNA sequencing of MT-ERα transcriptional programme; type: cell-based; settings: MCF-7 and ZR-75 cells expressing D538G and Y537S MT-ERα
Text: FIGS. 66A-D: (FIG. 66A) Effect of ERX-315 on ERa DNA binding on the promoters of 5 canonical ERα-regulated genes with ERa ChIP in MCF-7 expressing D538G MT-ERα in the absence and presence of estradiol.
Prior studies have shown that MT-ERα drives a canonical ERα transcriptional programme, both in the absence and presence of estradiol. RNA sequencing studies indicate that ERX-315 alters the transcriptional heatmap in MCF-7 and ZR-75 cells expressing D538G and Y537S MT-ERα (FIG. 66B, data shown for MCF-7 cells expressing D538G MT-ERα).

[4] = system: MCF-7 MT-ERα Y537S and D538G cells; type: cell-based; settings: comparators at 200 nM in MCF-7 MT-ERα Y537S cells
[5] = system: WT- and MT-ERα-driven cell lines (MCF-7, ZR-75); assay: Anti-proliferative activity in WT- and MT-ERα-driven cell lines; type: cell-based
[6] = system: ovarian cancer cells; assay: Growth inhibition of ovarian cancer cells; type: cell-based
Text: FIGS. 10A & 10B show effects of TK208 against cancer cells.
(§1) In addition, another tris-benzmaide compound TK208 was synthesized and tested against breast cancer and ovarian cancer cell lines (FIGS. 10-15). […] These compounds (e.g., TK41, TK208, TK308 (FIG. 21), TK309 (FIG. 22), TK314, TK315) are extremely potent compounds that inhibit tumor growth and kill breast and ovarian cancer cells and as such, they are superb therapeutic candidates for such diseases.

[7] = system: breast cancer cells; assay: Growth inhibition of breast cancer cells; type: cell-based; settings: relative to ovarian cancer cells
Text: as §1

[8] = system: MT-ERα; assay: MT-ERα protein levels; type: cell-based
[9] = system: ZR-75 MT-ERα cells; assay: Colony formation, ZR-75 MT-ERα; type: cell-based
Method: The 200 nM dose for these drugs reflects the level at which each of these drugs has a significant effect on spheroid formation in the MCF-7 WT-ERa cells. Taken together, these studies indicate that TX-542 has significant activity against both WT-ERα and MT-ERα driven ERα+ BC cell lines and is a worthwhile candidate for further study.

[10] = system: BC cells expressing MT-ERα (MCF-7, ZR-75, T47-D); assay: Cell titer glo antiproliferative assay in MT-ERα BC cells; type: cell-based; settings: T47-D Y537S MT
Text: FIG. 52: Comparative efficacy of TX-542 and SERDs in BC cells expressing WT and/or MT ERα: Using CRISPR-Cas9, both copies of WT ERα genes were knocked out in ZR-75 and T47-D, while only one copy of WT Era was knocked out in MCF-7 cells. Following knockout of WT ERα clones with stable expression of either Y537S ERα MT or the D538G ERα MT were selected. […] ERα-negative TNBC cells (SUM-159 and MDA-MB-231) were used as controls. Dose response curves were generated for ERX-11, TX-542 and SERDs using cell titer glo assays. IC50 values for each cell line and drug were calculated and tabulated. Tam=tamoxifen, ICI=fulvestrant, GDC-0810=Genentech SERD, AZD-9496 Astra Zeneca SERD, RAD-1901=Radius SERD, Palbo=Palbociclib. IC50 values<50 nM are shown in red.
TX-542. TX-542 was potent (IC50˜20-50 nM) as an antiproliferative agent against expressing MT-ERα, both in genetically modified MCF-7 cells with one WT-ERα allele and one MT-ERα allele introduced by CRISPR and genetically modified ZR-75 or T47-D cells in which both copies of WT-ERα alleles were replaced using CRISPR with MT-ERα. TX-542 had no activity against ER-null (SUM-159 or MDA-MB-231 cells) or non-tumorigenic breast epithelial cells, such as human mammary epithelial cells (HMEC). […] In addition, these agents are not able to consistently target all the MT-ERα forms in distinct genetic contexts, as shown in FIG. 52 and as reported by others.

[11] = molecular target: ERα (Homo sapiens, UniProt P03372); type: cell-based; settings: WT-ERα
[12] = system: OCa cells; assay: MTT assay in OCa cells; type: cell-based
Method: FIGS. 12A-12D show the effect of TK208 against ovarian cancer cell lines ES2 (FIGS. 12A & 12B) and SKOV3 (FIGS. 12C & 12D).
FIGS. 42A-D: OCa cells were treated with ERX-11 (FIG. 42A) or ERX-208 (FIG. 42B). Primary OCa cells derived from ascites were treated with ERX-208 for 72 h (FIG. 42C) and cell viability by MTT assays. (FIG. 42D) Effect of ERX-208 on viability of IOSE cells was measured using MTT assays and TOV21G was used as +ve control.
ERX-208. […] Functionally, ERX-208 causes growth inhibition of OCa cells, as noted by MTT assays using five established OCa cells (ES2, SKOV3, A2780, TOV21G, TOV112D) and five primary OCa cells derived from HGSOC patient ascites (AS21, AS23, AS25, AS28, AS29) (FIGS. 42B-C). […] The inventor noted an IC50 of ˜50-100 nM for ERX-208 both for inducing ERS and in reducing the growth of OCa cells.

[13] = molecular target: T2, vitamin D receptor (VDR) (Homo sapiens, UniProt P11473); assay: Vitamin D receptor inhibition; type: cell-based
T2 construct: endogenous in cells; host or cells: cancer cells
T2 sequence (P11473 whole entry): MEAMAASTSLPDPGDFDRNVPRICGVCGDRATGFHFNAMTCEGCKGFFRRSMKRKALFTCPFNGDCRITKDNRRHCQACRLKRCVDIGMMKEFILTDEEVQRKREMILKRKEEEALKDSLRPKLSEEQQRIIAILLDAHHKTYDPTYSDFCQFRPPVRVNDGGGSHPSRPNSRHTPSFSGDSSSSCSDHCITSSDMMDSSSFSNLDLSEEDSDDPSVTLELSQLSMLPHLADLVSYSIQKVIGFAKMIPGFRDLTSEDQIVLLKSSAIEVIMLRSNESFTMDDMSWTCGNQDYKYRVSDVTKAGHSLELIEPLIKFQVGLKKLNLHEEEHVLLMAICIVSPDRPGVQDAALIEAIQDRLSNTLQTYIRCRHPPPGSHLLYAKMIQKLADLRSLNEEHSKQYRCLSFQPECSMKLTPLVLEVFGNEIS

Sequence of ERα (P03372 whole entry): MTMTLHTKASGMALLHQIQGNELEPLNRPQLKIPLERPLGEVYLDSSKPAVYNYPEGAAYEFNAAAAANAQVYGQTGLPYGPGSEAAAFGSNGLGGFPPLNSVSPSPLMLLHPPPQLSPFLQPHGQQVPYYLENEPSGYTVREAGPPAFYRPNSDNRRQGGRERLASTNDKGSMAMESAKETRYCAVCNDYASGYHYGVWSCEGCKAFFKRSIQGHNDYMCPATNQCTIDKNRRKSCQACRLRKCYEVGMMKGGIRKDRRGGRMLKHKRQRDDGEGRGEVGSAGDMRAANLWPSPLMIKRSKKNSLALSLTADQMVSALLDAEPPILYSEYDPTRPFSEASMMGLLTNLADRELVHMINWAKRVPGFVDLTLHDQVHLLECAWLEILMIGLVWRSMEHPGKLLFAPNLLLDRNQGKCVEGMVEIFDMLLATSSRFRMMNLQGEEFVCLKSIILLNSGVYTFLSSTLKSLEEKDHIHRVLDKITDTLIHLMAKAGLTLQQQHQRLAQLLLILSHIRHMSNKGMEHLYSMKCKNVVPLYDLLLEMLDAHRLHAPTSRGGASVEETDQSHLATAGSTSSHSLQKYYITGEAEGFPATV
T1 sequence (P38571 77-399): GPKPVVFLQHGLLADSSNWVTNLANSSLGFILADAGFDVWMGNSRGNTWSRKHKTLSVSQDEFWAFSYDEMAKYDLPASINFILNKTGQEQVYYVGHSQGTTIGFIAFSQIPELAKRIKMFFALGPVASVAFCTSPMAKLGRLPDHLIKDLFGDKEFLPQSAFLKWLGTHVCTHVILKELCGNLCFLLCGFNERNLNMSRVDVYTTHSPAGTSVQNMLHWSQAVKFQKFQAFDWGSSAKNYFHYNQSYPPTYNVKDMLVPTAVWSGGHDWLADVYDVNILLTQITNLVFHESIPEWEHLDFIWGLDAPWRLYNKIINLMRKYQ

## O=C(Oc1nsnc1N1CCCCC1)N1CCCCC1 [lalistat, reference compound]
[1]
  effect on lipase activity of LIPA: attenuated lipase activity

## CC/C(=C(\c1ccccc1)c1ccc(OCCN(C)C)cc1)c1ccccc1 [tamoxifen]
[2]
  soft agar colony formation: neither the parental ERX-11, tamoxifen nor GDC0810 SERD (at the same concentrations) had an effect on colony formation
[3]
  MT-ERα transcriptional programme: neither tamoxifen nor ERX-314 is able to alter the ERα-regulated transcriptome
[4]
  spheroid size or architecture: neither ERX-11, palbociclib, GDC-0810 nor AZD-9496, tamoxifen nor fulvestrant (at 200 nM) significantly disrupted spheroid size or architecture

## CC(C)COc1cc(C(=O)Nc2ccc(C(=O)N[C@H]3CC[C@H](C)CC3)cc2OCC(C)C)ccc1NC(=O)c1ccc(F)c(OCCO)c1 [TK314]
[3]
  MT-ERα transcriptional programme: neither tamoxifen nor ERX-314 is able to alter the ERα-regulated transcriptome
[5]
  IC50: 1500 to 5000 nM
[6]
  IC50: 10 to 50 nM
  activity against ovarian cancer cells: unique activity against ovarian cancer cells
[7]
  activity against breast cancer cells: significantly less activity against breast cancer cells

## CC/C(=C(/c1ccc(/C=C/C(=O)O)cc1)c1ccc2[nH]ncc2c1)c1ccc(F)cc1Cl [GDC-0810]
[8]
  ability to decrease MT-ERα protein levels: neither fulvestrant nor GDC-0810 were able to decrease MT-ERα protein levels
[2]
  soft agar colony formation: neither the parental ERX-11, tamoxifen nor GDC0810 SERD (at the same concentrations) had an effect on colony formation
[4]
  spheroid size or architecture: neither ERX-11, palbociclib, GDC-0810 nor AZD-9496, tamoxifen nor fulvestrant (at 200 nM) significantly disrupted spheroid size or architecture

## C[C@@H]1Cc2c([nH]c3ccccc23)[C@@H](c2c(F)cc(/C=C/C(=O)O)cc2F)N1CC(C)(C)F [AZD-9496]
[2]
  soft agar colony formation: significantly affected colony formation
[4]
  spheroid size or architecture: neither ERX-11, palbociclib, GDC-0810 nor AZD-9496, tamoxifen nor fulvestrant (at 200 nM) significantly disrupted spheroid size or architecture
[9]
  colony formation in ZR-75 MT-ERα cells: activity was not seen
[10]
  activity against T47-D Y537S MT: potent activity

## C[C@]12CC[C@@H]3c4ccc(O)cc4C[C@@H](CCCCCCCCC[S+]([O-])CCCC(F)(F)C(F)(F)F)[C@H]3[C@@H]1CC[C@@H]2O (stereo partly shown) [fulvestrant]
[11]
  time to WT-ERα degradation: ≤ 4 h
[8]
  ability to decrease MT-ERα protein levels: neither fulvestrant nor GDC-0810 were able to decrease MT-ERα protein levels
[2]
  soft agar colony formation: significantly affected colony formation
[4]
  spheroid size or architecture: neither ERX-11, palbociclib, GDC-0810 nor AZD-9496, tamoxifen nor fulvestrant (at 200 nM) significantly disrupted spheroid size or architecture
[9]
  colony formation in ZR-75 MT-ERα cells: activity was not seen

## CC(C)COc1cc(C(N)=O)ccc1NC(=O)c1ccc(NC(=O)c2ccc([N+](=O)[O-])c(OCCO)c2)c(OCC(C)C)c1 [ERX-11, reference compound]
[2]
  soft agar colony formation: neither the parental ERX-11, tamoxifen nor GDC0810 SERD (at the same concentrations) had an effect on colony formation
[4]
  spheroid size or architecture: neither ERX-11, palbociclib, GDC-0810 nor AZD-9496, tamoxifen nor fulvestrant (at 200 nM) significantly disrupted spheroid size or architecture
[12]
  activity against OCa cells / cell viability: limited activity

## CC(C)COc1cc(C(=O)Nc2ncc[nH]2)ccc1NC(=O)c1ccc(NC(=O)c2ccc([N+](=O)[O-])c(OCCO)c2)c(OCC(C)C)c1 [YL144]
[13]
  inhibition of VDR: high potency
